# Measurements taken from patent publication US20240324679A1, “METHODS AND DEVICES FOR CONTROLLING THE TEMPERATURE OF A DRUG FOIL SUBSTRATE TO GENERATE AN AEROSOL” (ALEXZA PHARMACEUTICALS, INC., priority 2021, published 2024).
# Counter-ions that a name gives are not always drawn.
# Assays:
# [1] = Vaporization of apomorphine HCl film from drug foil substrate, Heat Source 1 (testing electric heating, Device 1); type: physicochemical; details: 0.44 mg/cm^2 coating, airflow ~30 L/min
# Procedure: Device 1 has an air inlet and air outlet and a 1 F capacitor (Phoenix Gold Titanium series) to be discharged to resistively heat the substrate (<0.2 sec) and facilitate rapid aerosol formation with a cross-foil airflow of ˜ 30 L/min. Calibration for temperature versus applied voltage was determined with a thermocouple spot-welded to the foil surface.
# A 12.7×63.5, 0.127 mm 304-stainless steel drug foil substrate attached to Device 1 with connexions to receive electrical power from an electrical source. Devices were actuated with a constant airflow of ˜ 30 L/min. An example is depicted in FIG. 1D.
# (§1) […] was coated on 2.27 cm^2 (0.44 mg/cm^2) on the drug foil substrate of Heat Source 1 or 2 and heated to the temperatures specified in the table below.
# [2] = Vaporization of apomorphine HCl film from drug foil substrate, Heat Source 2 (chemical heat package, Device 2); type: physicochemical; details: 0.44 mg/cm^2 coating, airflow ~30 L/min
# Text: A 100 mm long device such as that in FIG. 1B, the same shape as that of the Adasuve® device, moulded from PermaStat® resin (antistatic material).
# A 47.2×47.2×0.38 mm 304-stainless steel drug foil substrate is attached to a chemical heat package connected to Device 2.
# In chemical heat package devices, an exothermic thermite reaction from the reactants inside of the heat package rapidly propagated (˜ 0.1 s) and generated heat nearly instantaneously, which vaporized the drug film. The reactants are calibrated to heat the drug foil substrate to a given temperature. Upper and lower housings were welded prior to vaporization. Devices were actuated with a constant airflow of ˜ 30 L/min.
# as §1
# [3] = Heat Source 1, substrate temp. 260 °C
# [4] = Heat Source 1, substrate temp. 290 °C
# [5] = Heat Source 1, substrate temp. 310 °C
# [6] = Heat Source 1, substrate temp. 320 °C
# [7] = Heat Source 2, substrate temp. 310 °C
# [8] = Heat Source 2, substrate temp. 330 °C
structure (smiles),measurement,setting,value
CN1CCc2cccc3c2[C@H]1Cc1ccc(O)c(O)c1-3 [apomorphine HCl],% Vaporization,[1]; [3],40.57 ± 9.34%
same,Aerosol Purity (%),[1]; [3],98.35 ± 0.64%
same,% Vaporization,[1]; [4],58.03 ± 12.15%
same,Aerosol Purity (%),[1]; [4],96.45 ± 0.93%
same,% Vaporization,[1]; [5],59.69 ± 0.34%
same,Aerosol Purity (%),[1]; [5],94.92 ± 1.12%
same,% Vaporization,[1]; [6],66.14 ± 0.95%
same,Aerosol Purity (%),[1]; [6],90.89 ± 0.78%
same,% Vaporization,[2]; [7],48.32 ± 16.77%
same,Aerosol Purity (%),[2]; [7],91.71 ± 1.62%
same,% Vaporization,[2]; [8],61.58 ± 2.07%
same,Aerosol Purity (%),[2]; [8],87.51 ± 0.18%
same,% Vaporization,"[2]; Heat Source 2, substrate temp. 400 °C",49.07 ± 1.12%
